Source: US6469037B2, “Prophylactic or therapeutic drug for renal diseases” (Takeda Chemical Industries, Ltd., priority 1993, dated 2002)

Columns and labels:
in vivo = conditions: both sexes, po
Experimental: Acute Toxicity Test Compound 1: (±)-1-(cyclohexyloxycarbonyloxy)ethyl 2-ethoxy-1-[[2′-(1H-tetrazole-5-yl)biphenyl-4-yl]methyl]-1H-benzimidazole-7-carboxylate The LD50 of compound 1 is 2,000 mg/kg or more for 4-week-old Jcl:ICR mice (males and females) and for 5-week-old Jcl:Wister rats (males and females) via single oral administration.

Wistar fatty rats = assay: Antiproteinuric action in rats with non-insulin-dependent diabetes (Wistar fatty rats); type: in vivo
Source text: Antiproteinuric action in rats with non-insulin-dependent (NIDD) diabetes (Wistar fatty rats) (Ikeda, H., Shino, A., Matsuo, T., Iwatsuka, H., and Suzuoki, Z.: Diabetes, 30, 1045 (1981) or Kava, R. A., West, D. B., Lukasik, V. A., and Greenwood, M. R. C: Diabetes, 38,159 (1989) Compound 1: (±)-1-(cyclohexyloxycarbonyloxy)ethyl 2-ethoxy-1-[[2′-(1H-tetrazole-5-yl)biphenyl-4-yl]methyl]-1H-benzimidazole-7-carboxylate Method: On the basis of blood glucose level and urinary protein content, 11-week-old Wistar fatty rats were divided into two groups (vehicle-treated rats and rats treated with 1 mg/kg/day, p.o. of compound 1). Non-diabetic control rats (lean rats) were also used. Compound 1 was suspended in gum-arabic and the suspension was orally administered once a day for ten weeks. At the 2nd, 4th, 6th, 8th and 10th week of the treatment, 24 hour urine was collected. The urine was centrifuged at 3,000 rpm and a portion of the supernatant was desalted on a column (Pharmacia PD10). Urinary total protein content and albumin content were determined by Lowry and ELISA methods, respectively. Results: Table 2 summarizes the results. Urinary total protein content increased in vehicle-treated rats to about three times of the value in lean rats. This increase, however, was reduced to 1.2-1.5 times by the-treatment with compound 1. […] This increase, however, was reduced to 20-30 times by the treatment with compound 1. […] In non-insulin-dependent diabetic models, compound 1 is expected to be effective against diabetic nephropathy by decreasing the urinary protein without affecting the blood glucose level.

[1] = test system: rats with subtotally (5/6) nephrectomy; assay: Antiproteinuric action in rats with subtotally (5/6) nephrectomy (focal glomerulosclerosis model); type: in vivo
Source text: Antiproteinuric action in rats with subtotally (5/6) nephrectomy (focal glomerulorsclerosis model; Meyer, T. W. and Renake, H. G.: Am. J. Physiol. 254, F856 (1988) or Yoshioka, T., Shiraga, H., Yoshida, Y., Fogo. A., Glick, A. D.: J. Clin. Invest. 82, 1614 (1988)) Compound 1: (±)-1-(cyclohexyloxycarbonyloxy)ethyl 2-ethoxy-1-[[2′-(1H-tetrazole-5-yl)biphenyl-4-yl]methyl]-1H-benzmidazole-7-carboxylate Method: Five-week-old male rats were anesthetized by intraperitoneal injection of pentobarbital sodium and ⅔ of the right kidney was removed. One week later, the entire left kidney was removed under similar anesthesia. After two-week breeding, 24-hour urine was collected and the total protein content and albumin content in the urine were determined by the use of A/G-B test (Wako Pure Chemistry Co., Ltd.). On the basis of urinary protein and blood pressure (BP), the rats were divided into two groups (vehicle-treated rats and rats treated with 1 mg/kg/day, p.o. of compound 1). Rats undergoing nephrectomy of the left kidney alone were also used as sham operated rats. Compound 1 was suspended in gum-arabic and the suspension was orally administered once a day for eight weeks. At the 2nd, 4th, 6th and 8th week of the treatment, 24-hour urine was collected. Results: Table 1 summarizes the results. Urinary total protein and albumin began to markedly increase in vehicle-treated rats two weeks after surgery. […] Since compound 1 suppresses aggravation of renal impairment, its efficacy in glomerulonephritis or diabetic nephropathy is expected.

[2] = age 11 weeks (start of treatment, baseline), Wistar fatty rats, n = 6, mean ± standard error
[3] = age 13 weeks, 1 mg/kg/day p.o., mean ± standard error
[4] = age 15 weeks, 1 mg/kg/day p.o., mean ± standard error
[5] = age 17 weeks, 1 mg/kg/day p.o., mean ± standard error
[6] = age 19 weeks, 1 mg/kg/day p.o., mean ± standard error
[7] = age 21 weeks, 1 mg/kg/day p.o., mean ± standard error
[8] = 2 weeks after the first dose, 1 mg/kg/day p.o., mean ± standard error
[9] = 4 weeks after the first dose, 1 mg/kg/day p.o., mean ± standard error
[10] = 6 weeks after the first dose, 1 mg/kg/day p.o., mean ± standard error
[11] = 8 weeks after the first dose, 1 mg/kg/day p.o., mean ± standard error
[12] = Preadministration (baseline), 5/6 nephrectomized rats, n = 9, mean ± standard error

CCOc1nc2cccc(C(=O)OC(C)OC(=O)OC3CCCCC3)c2n1Cc1ccc(-c2ccccc2-c2nnn[nH]2)cc1 (racemic) [Compound 1, (±)-1-(cyclohexyloxycarbonyloxy)ethyl 2-ethoxy-1-[[2′-(1H-tetrazole-5-yl)biphenyl-4-yl]methyl]-1H-benzimidazole-7-carboxylate]
LD50 (in vivo; Jcl:ICR, mouse): ≥ 2000 mg/kg
LD50 (in vivo; Jcl:Wister, rat): ≥ 2000 mg/kg
Effect on blood glucose level (Wistar fatty rats; Wistar fatty rats, 1 mg/kg/day p.o.): did not affect blood glucose level
Urinary albumin content relative to the value in lean rats (Wistar fatty rats; Wistar fatty rats, 1 mg/kg/day p.o., vehicle-treated about 100 times): 20-30 times
Urinary total protein content relative to the value in lean rats (Wistar fatty rats; Wistar fatty rats, 1 mg/kg/day p.o., vehicle-treated about three times): 1.2-1.5 times
Urinary albumin (Wistar fatty rats; [2]): 6.5 ± 0.4 mg/24 hr
Urinary total protein (Wistar fatty rats; [2]): 101 ± 6 mg/24 hr
Urinary albumin (Wistar fatty rats; [3]): 11.2 ± 3.9 mg/24 hr
Urinary total protein (Wistar fatty rats; [3]): 69 ± 11 mg/24 hr
Urinary albumin (Wistar fatty rats; [4]): 14.8 ± 6.1 mg/24 hr
Urinary total protein (Wistar fatty rats; [4]): 91 ± 12 mg/24 hr
Urinary albumin (Wistar fatty rats; [5]): 21.8 ± 8.2 mg/24 hr
Urinary total protein (Wistar fatty rats; [5]): 97 ± 11 mg/24 hr
Urinary albumin (Wistar fatty rats; [6]): 10.7 ± 3.9 mg/24 hr
Urinary total protein (Wistar fatty rats; [6]): 79 ± 10 mg/24 hr
Urinary albumin (Wistar fatty rats; [7]): 15.4 ± 3.7 mg/24 hr
Urinary total protein (Wistar fatty rats; [7]): 74 ± 13 mg/24 hr
Urinary albumin [1, 8]: 6.3 ± 2.9 mg/100 g/24 hr
Urinary total protein [1, 8]: 30.9 ± 5.2 mg/100 g/24 hr
Urinary albumin [1, 9]: 6.8 ± 3.4 mg/100 g/24 hr
Urinary total protein [1, 9]: 27.7 ± 4.0 mg/100 g/24 hr
Urinary total protein and albumin (course versus vehicle-treated rats) ([1]; 5/6 nephrectomized rats, 1 mg/kg/day p.o. for eight weeks): these parameters did not increase
Urinary albumin [1, 10]: 7.4 ± 4.0 mg/100 g/24 hr
Urinary total protein [1, 10]: 17.6 ± 5.6 mg/100 g/24 hr
Urinary albumin [1, 11]: 5.6 ± 2.7 mg/100 g/24 hr
Urinary total protein [1, 11]: 24.4 ± 2.7 mg/100 g/24 hr
Urinary albumin [1, 12]: 7.3 ± 2.3 mg/100 g/24 hr
Urinary total protein [1, 12]: 32.8 ± 5.4 mg/100 g/24 hr
